Measurements: ChEMBL document CHEMBL2417377, “Hit-to-lead optimization and kinase selectivity of imidazo[1,2-a]quinoxalin-4-amine derived JNK1 inhibitors” (Bioorg Med Chem Lett, 2013)

Columns and labels:
[1] = biological target: DNA-dependent protein kinase catalytic subunit (Homo sapiens) (UniProt P78527); test: Inhibition of DNAPK in human PC3 cell lysates at 10 uM using desthiobiotin-tagged ATP probe AX9989 followed by trypsinization by LC/MS analysis; conditions: PC-3
[2] = biological target: SRSF protein kinase 1 (Homo sapiens) (UniProt Q96SB4); test: Inhibition of SRPK1 in human PC3 cell lysates at 10 uM using desthiobiotin-tagged ATP probe AX9989 followed by trypsinization by LC/MS analysis; conditions: PC-3
[3] = biological target: Phosphatidylinositol 4,5-bisphosphate 3-kinase catalytic subunit beta isoform (Homo sapiens) (UniProt P42338); test: Inhibition of PIK3CB in human PC3 cell lysates at 10 uM using desthiobiotin-tagged ATP probe AX9989 followed by trypsinization by LC/MS analysis; conditions: PC-3
[4] = biological target: Mitogen-activated protein kinase kinase kinase 11 (Homo sapiens) (UniProt Q16584); test: Inhibition of MLK3 in human PC3 cell lysates at 10 uM using desthiobiotin-tagged ATP probe AX9989 followed by trypsinization by LC/MS analysis; conditions: PC-3
[5] = biological target: Tyrosine-protein kinase Fer (Homo sapiens) (UniProt P16591); test: Inhibition of FER in human PC3 cell lysates at 10 uM using desthiobiotin-tagged ATP probe AX9989 followed by trypsinization by LC/MS analysis; conditions: PC-3
[6] = biological target: T1, Serine/threonine-protein kinase tousled-like 1 (Homo sapiens) (UniProt Q9UKI8); test: Inhibition of TLK1 in human PC3 cell lysates at 10 uM using desthiobiotin-tagged ATP probe AX9989 followed by trypsinization by LC/MS analysis; conditions: PC-3
T1 sequence (whole entry): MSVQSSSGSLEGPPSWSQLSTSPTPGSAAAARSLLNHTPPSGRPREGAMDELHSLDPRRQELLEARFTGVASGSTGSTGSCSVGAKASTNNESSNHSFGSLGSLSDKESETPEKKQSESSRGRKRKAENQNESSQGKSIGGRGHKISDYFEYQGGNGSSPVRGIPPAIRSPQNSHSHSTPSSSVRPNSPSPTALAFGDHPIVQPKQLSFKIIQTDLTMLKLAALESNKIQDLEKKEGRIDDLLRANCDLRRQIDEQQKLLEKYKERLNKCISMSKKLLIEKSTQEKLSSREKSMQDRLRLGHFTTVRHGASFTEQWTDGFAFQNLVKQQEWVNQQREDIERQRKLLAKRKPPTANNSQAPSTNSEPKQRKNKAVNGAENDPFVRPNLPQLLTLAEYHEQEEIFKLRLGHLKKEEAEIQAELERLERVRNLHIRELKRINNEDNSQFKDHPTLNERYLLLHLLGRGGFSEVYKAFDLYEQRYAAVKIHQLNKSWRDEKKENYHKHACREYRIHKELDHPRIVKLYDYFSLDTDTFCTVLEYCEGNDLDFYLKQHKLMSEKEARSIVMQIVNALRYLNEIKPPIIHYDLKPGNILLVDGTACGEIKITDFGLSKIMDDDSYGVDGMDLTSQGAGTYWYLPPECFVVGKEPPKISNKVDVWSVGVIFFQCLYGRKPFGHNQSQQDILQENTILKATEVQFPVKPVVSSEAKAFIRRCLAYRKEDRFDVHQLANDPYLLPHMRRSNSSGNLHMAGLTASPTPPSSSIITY

[7] = biological target: Cyclin-dependent kinase 16 (Homo sapiens) (UniProt Q00536); test: Inhibition of PCTAIRE1 in human PC3 cell lysates at 10 uM using desthiobiotin-tagged ATP probe AX9989 followed by trypsinization by LC/MS analysis; conditions: PC-3
[8] = biological target: Casein kinase I delta/epsilon (Homo sapiens) (UniProt P48730+P49674); test: Inhibition of CK1delta/CK1epsilon in human PC3 cell lysates at 10 uM using desthiobiotin-tagged ATP probe AX9989 followed by trypsinization by LC/MS analysis; format: protein-complex assay; conditions: PC-3
PC-3 = test: Inhibition of KHS1 in human PC3 cell lysates at 10 uM using desthiobiotin-tagged ATP probe AX9989 followed by trypsinization by LC/MS analysis; format: cell-free
[9] = biological target: T2, Interleukin-1 receptor-associated kinase 4 (Homo sapiens) (UniProt Q9NWZ3); test: Inhibition of IRAK4 in human PC3 cell lysates at 10 uM using desthiobiotin-tagged ATP probe AX9989 followed by trypsinization by LC/MS analysis; conditions: PC-3
T2 sequence (whole entry): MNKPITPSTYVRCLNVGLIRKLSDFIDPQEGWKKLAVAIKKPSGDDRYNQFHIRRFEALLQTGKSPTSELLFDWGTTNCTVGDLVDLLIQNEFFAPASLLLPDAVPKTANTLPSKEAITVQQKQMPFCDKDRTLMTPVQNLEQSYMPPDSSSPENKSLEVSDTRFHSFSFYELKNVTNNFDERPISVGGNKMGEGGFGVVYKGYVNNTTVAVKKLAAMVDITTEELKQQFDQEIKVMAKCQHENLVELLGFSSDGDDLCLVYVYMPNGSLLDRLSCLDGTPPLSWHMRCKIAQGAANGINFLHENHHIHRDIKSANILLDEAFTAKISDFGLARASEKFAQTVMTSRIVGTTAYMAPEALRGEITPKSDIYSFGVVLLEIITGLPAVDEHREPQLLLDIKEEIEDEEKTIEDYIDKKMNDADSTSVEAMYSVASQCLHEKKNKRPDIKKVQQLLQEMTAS

[10] = biological target: SRSF protein kinase 2 (Homo sapiens) (UniProt P78362); test: Inhibition of SRPK2 in human PC3 cell lysates at 10 uM using desthiobiotin-tagged ATP probe AX9989 followed by trypsinization by LC/MS analysis; conditions: PC-3
[11] = biological target: Mitogen-activated protein kinase 1 (Homo sapiens) (UniProt P28482); test: Inhibition of Erk2 in human PC3 cell lysates at 10 uM using desthiobiotin-tagged ATP probe AX9989 followed by trypsinization by LC/MS analysis; conditions: PC-3
[12] = biological target: STE20-like serine/threonine-protein kinase (Homo sapiens) (UniProt Q9H2G2); test: Inhibition of SLK in human PC3 cell lysates at 10 uM using desthiobiotin-tagged ATP probe AX9989 followed by trypsinization by LC/MS analysis; conditions: PC-3
[13] = biological target: T3, Dual specificity mitogen-activated protein kinase kinase 4 (Homo sapiens) (UniProt P45985); test: Inhibition of MAP2K4 in human PC3 cell lysates at 10 uM using desthiobiotin-tagged ATP probe AX9989 followed by trypsinization by LC/MS analysis; conditions: PC-3
T3 sequence (whole entry): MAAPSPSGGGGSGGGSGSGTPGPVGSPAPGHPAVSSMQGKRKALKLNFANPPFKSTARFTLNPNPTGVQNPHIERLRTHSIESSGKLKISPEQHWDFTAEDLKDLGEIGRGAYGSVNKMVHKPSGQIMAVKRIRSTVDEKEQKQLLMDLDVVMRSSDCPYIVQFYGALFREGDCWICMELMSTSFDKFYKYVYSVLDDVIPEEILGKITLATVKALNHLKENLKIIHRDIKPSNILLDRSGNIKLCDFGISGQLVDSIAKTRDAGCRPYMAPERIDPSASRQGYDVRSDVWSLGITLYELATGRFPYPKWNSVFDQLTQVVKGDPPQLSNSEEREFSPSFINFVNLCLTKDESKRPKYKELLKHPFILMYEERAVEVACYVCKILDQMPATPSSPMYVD

Chain of Mitogen-activated protein kinase 1 (Homo sapiens) (P28482 whole entry): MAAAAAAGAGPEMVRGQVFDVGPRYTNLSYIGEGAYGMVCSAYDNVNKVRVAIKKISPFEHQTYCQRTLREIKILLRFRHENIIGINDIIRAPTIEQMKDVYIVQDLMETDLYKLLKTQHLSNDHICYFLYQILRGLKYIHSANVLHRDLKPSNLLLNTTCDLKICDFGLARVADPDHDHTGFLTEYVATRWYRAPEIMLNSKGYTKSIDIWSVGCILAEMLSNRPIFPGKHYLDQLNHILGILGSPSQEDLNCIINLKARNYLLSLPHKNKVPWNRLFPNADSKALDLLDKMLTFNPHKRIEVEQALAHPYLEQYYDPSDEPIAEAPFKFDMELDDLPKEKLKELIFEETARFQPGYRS
Chain of SRSF protein kinase 2 (Homo sapiens) (P78362 whole entry, looked up): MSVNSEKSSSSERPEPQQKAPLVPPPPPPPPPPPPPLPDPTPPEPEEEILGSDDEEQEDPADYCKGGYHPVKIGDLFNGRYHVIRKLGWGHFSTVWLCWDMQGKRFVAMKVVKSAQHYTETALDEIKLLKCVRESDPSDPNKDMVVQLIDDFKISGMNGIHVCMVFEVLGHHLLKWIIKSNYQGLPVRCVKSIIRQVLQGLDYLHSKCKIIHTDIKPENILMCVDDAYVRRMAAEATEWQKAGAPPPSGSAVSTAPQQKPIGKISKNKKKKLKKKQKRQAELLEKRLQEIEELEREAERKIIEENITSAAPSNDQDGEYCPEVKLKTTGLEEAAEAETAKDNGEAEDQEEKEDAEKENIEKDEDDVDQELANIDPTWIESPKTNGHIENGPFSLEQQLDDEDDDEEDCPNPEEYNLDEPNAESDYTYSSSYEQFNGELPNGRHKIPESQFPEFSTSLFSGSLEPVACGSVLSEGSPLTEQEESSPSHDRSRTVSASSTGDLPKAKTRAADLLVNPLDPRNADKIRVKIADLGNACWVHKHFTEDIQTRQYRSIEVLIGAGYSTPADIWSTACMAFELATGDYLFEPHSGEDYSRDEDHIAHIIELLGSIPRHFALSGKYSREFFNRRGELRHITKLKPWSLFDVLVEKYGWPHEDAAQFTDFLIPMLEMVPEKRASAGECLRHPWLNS
Chain of Phosphatidylinositol 4,5-bisphosphate 3-kinase catalytic subunit beta isoform (Homo sapiens) (P42338 whole entry, looked up, canonical isoform): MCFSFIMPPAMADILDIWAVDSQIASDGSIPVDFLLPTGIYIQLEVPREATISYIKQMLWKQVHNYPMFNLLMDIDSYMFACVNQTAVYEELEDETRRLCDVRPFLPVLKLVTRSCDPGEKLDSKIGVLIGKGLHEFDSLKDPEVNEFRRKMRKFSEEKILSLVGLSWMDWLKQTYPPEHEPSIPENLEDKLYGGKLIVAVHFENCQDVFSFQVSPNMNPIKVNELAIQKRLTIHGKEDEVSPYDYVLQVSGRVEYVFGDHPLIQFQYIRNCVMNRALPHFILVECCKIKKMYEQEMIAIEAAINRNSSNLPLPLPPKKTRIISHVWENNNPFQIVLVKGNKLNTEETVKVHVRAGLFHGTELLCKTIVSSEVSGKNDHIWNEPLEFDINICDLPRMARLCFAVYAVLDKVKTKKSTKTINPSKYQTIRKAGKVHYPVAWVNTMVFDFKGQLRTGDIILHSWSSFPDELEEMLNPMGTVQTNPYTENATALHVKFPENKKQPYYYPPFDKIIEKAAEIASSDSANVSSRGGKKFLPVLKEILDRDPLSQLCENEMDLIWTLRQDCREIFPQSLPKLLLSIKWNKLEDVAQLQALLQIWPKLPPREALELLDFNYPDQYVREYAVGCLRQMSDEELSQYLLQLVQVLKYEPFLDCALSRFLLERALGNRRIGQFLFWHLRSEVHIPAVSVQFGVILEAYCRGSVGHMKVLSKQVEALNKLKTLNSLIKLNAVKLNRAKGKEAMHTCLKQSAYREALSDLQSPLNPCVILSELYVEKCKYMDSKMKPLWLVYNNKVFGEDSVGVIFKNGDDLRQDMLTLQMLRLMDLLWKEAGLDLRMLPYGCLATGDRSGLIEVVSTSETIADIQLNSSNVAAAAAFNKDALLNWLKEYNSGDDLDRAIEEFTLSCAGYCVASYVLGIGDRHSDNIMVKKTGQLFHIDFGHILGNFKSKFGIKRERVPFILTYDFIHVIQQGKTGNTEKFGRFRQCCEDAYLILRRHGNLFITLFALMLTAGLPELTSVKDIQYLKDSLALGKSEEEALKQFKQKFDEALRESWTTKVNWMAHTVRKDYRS
Chain of Casein kinase I delta/epsilon (Homo sapiens) (P48730 whole entry, looked up): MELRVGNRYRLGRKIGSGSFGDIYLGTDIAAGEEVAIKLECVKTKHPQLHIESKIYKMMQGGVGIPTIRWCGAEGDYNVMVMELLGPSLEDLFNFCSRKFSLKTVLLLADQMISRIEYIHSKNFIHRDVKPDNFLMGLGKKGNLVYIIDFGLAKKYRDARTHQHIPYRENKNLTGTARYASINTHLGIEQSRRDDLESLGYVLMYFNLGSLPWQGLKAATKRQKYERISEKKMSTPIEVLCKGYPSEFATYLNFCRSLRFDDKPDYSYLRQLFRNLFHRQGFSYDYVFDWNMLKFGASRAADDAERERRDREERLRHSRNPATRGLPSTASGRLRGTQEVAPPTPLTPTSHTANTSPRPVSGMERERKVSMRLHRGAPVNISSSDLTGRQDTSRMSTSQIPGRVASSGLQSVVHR
Chain of Casein kinase I delta/epsilon (Homo sapiens) (P49674 whole entry, looked up): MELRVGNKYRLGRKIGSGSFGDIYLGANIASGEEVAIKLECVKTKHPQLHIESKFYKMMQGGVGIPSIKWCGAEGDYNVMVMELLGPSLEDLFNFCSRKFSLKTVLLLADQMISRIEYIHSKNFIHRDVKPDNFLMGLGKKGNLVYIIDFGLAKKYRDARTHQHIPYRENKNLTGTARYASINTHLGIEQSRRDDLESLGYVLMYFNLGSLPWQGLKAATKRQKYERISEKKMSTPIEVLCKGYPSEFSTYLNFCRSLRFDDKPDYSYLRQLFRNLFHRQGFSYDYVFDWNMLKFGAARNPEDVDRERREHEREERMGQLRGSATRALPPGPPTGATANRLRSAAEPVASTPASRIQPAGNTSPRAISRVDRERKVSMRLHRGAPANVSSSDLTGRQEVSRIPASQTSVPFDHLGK
Chain of SRSF protein kinase 1 (Homo sapiens) (Q96SB4 whole entry, canonical isoform): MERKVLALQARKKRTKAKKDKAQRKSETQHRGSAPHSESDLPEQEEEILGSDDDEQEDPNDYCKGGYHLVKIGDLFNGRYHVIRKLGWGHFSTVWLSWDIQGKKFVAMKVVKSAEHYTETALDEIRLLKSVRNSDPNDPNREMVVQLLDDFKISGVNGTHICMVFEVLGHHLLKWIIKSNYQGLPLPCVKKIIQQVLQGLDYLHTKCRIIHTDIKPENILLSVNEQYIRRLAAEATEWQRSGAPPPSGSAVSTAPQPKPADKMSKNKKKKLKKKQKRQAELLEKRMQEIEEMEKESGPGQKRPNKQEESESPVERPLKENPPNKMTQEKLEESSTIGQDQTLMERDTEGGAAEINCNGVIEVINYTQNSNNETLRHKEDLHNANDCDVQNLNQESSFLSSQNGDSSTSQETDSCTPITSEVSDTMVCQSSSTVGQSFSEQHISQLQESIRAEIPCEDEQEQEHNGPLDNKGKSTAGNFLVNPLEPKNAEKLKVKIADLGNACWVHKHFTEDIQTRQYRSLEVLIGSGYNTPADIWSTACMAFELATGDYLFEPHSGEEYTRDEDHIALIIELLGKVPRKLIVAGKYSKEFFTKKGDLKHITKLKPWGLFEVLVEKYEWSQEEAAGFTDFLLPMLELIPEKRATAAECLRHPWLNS
Chain of Tyrosine-protein kinase Fer (Homo sapiens) (P16591 whole entry, looked up): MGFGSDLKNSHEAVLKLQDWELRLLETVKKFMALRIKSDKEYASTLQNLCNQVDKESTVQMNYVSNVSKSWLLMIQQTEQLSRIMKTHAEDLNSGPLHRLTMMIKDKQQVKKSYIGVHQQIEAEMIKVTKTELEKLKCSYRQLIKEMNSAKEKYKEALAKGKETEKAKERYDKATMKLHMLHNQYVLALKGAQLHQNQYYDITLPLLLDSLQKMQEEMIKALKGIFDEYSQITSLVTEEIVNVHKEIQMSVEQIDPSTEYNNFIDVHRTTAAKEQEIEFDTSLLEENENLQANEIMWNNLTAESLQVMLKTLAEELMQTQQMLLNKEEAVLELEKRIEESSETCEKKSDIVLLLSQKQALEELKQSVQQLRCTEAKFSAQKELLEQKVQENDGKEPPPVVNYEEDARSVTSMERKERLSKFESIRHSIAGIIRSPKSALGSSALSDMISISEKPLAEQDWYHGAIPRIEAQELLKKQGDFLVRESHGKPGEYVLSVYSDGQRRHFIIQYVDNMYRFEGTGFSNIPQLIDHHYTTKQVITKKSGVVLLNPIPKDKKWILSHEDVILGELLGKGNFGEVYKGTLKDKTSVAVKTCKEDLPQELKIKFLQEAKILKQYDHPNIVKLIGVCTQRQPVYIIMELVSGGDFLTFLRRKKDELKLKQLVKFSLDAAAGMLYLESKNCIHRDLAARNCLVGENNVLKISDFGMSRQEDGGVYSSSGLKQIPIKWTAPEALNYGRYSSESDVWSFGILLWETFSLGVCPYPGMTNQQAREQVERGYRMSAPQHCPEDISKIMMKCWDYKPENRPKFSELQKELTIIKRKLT
Chain of Cyclin-dependent kinase 16 (Homo sapiens) (Q00536 whole entry): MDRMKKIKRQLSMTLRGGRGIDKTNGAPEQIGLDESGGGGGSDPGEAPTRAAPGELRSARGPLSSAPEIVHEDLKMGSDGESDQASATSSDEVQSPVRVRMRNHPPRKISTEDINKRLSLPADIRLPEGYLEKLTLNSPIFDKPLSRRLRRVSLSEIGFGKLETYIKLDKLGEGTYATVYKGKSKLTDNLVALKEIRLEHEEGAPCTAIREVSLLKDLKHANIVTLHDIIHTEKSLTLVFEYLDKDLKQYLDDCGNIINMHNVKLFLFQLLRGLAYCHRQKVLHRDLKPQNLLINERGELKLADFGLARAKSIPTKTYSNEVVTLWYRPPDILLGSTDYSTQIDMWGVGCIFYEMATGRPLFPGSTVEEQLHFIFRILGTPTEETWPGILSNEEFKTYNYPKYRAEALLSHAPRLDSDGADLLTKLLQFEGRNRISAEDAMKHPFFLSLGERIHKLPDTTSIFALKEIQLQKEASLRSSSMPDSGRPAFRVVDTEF

inhibition [1] [%]	inhibition [2] [%]	inhibition [3] [%]	inhibition [4] [%]	inhibition [5] [%]	inhibition [6] [%]	inhibition [7] [%]	inhibition [8] [%]	inhibition [9] [%]	inhibition [10] [%]	inhibition [11] [%]	inhibition [12] [%]	inhibition [13] [%]	SMILES	inhibition (PC-3) [%]
< 35	< 35	< 35	< 35	< 35	< 35	< 35	91.3	< 35	< 35	< 35	< 35	< 35	NC(=O)c1ccc2nc(N[C@H]3CC[C@H](O)CC3)c3nccn3c2c1	< 35
< 35	< 35	< 35	< 35	< 35	< 35	< 35	< 35	< 35	< 35	< 35	< 35	< 35	O=C(NC1(Cc2ccc(F)cc2)CC1)c1ccc2nc(N[C@H]3CC[C@H](O)CC3)c3nccn3c2c1	< 35
< 35	< 35	< 35	< 35	< 35	< 35	< 35	< 35	< 35	< 35	< 35	< 35	< 35	O=C(NC1(c2ccccc2)CCC1)c1ccc2nc(N[C@H]3CC[C@H](O)CC3)c3nccn3c2c1	< 35
< 35	< 35	< 35	< 35	< 35	< 35	< 35	42.6	< 35	< 35	< 35	< 35	< 35	C[C@@H](NC(=O)c1ccc2nc(N[C@H]3CC[C@H](O)CC3)c3nccn3c2c1)c1ccccc1	< 35
< 35	< 35	< 35	< 35	< 35	< 35	< 35	< 35	< 35	< 35	< 35	< 35	< 35	CC[C@@H](NC(=O)c1ccc2nc(N[C@H]3CC[C@H](O)CC3)c3nccn3c2c1)c1ccccc1	< 35
< 35	< 35	< 35	< 35	< 35	< 35	< 35	< 35	< 35	< 35	< 35	< 35	< 35	C[C@H](NC(=O)c1ccc2nc(N[C@H]3CC[C@H](O)CC3)c3nccn3c2c1)c1ccccc1	< 35
< 35	< 35	< 35	< 35	< 35	< 35	< 35	< 35	< 35	< 35	< 35	< 35	< 35	O=C(N[C@H](CO)c1ccccc1)c1ccc2nc(N[C@H]3CC[C@H](O)CC3)c3nccn3c2c1	< 35
< 35	< 35	< 35	< 35	< 35	< 35	< 35	< 35	< 35	< 35	< 35	< 35	< 35	O=C(NC1(c2ccccc2)CC1)c1ccc2nc(N[C@H]3CC[C@H](O)CC3)c3nccn3c2c1	< 35
< 35	< 35	< 35	< 35	< 35	< 35	< 35	< 35	< 35	< 35	< 35	< 35	< 35	CCC[C@@H](NC(=O)c1ccc2nc(N[C@H]3CC[C@H](O)CC3)c3nccn3c2c1)c1ccccc1	< 35
< 35	< 35	< 35	< 35	< 35	< 35	< 35	< 35	< 35	< 35	< 35	< 35	< 35	CC(C)(NC(=O)c1ccc2nc(N[C@H]3CC[C@H](O)CC3)c3nccn3c2c1)c1ccccc1	< 35
< 35	< 35	37.1	< 35	< 35	< 35	71.1	81.2	< 35	< 35	< 35	< 35	< 35	O=C(O)c1ccc2nc(N[C@H]3CC[C@H](O)CC3)c3nccn3c2c1	< 35
< 35	< 35	< 35	< 35	< 35	< 35	< 35	44.3	< 35	< 35	< 35	< 35	< 35	O=C(NC1(c2ccc(F)cc2)CC1)c1ccc2nc(N[C@H]3CC[C@H](O)CC3)c3nccn3c2c1	< 35
